Experimental data as given in patent publication US20250296959A1, “B7-H3 TARGETING PEPTIDES AND CONSTRUCTS THEREOF” (Mariana Oncology Inc., priority 2024, published 2025).
Positions of bridges follow the written chain, without caps; N, C: chain ends. Non-standard residues stand in square brackets, D forms with d. Residues, ends and D or L forms follow the SMILES beside them. *: point of attachment. DOTA = O=C(O)CN1CCN(CC(=O)O)CCN(CC(=O)*)CCN(CC(=O)O)CC1; Phe(4-COOH) = N[C@@H](Cc1ccc(C(=O)O)cc1)C(=O)O; Trp(5-F) = N[C@@H](Cc1c[nH]c2ccc(F)cc12)C(=O)O; Trp(1-Me) = Cn1cc(C[C@H](N)C(=O)O)c2ccccc21; AEF = NCCOc1ccc(C[C@H](N)C(=O)O)cc1; Val(3-OH) = CC(C)(O)[C@H](N)C(=O)O; Chg = N[C@H](C(=O)O)C1CCCCC1; Tle = CC(C)(C)[C@H](N)C(=O)O; hLeu = CC(C)CC[C@H](N)C(=O)O; NMeS = CN[C@@H](CO)C(=O)O; αMeS = C[C@](N)(CO)C(=O)O; Orn = NCCC[C@H](N)C(=O)O; Sar = CNCC(=O)O

Target: T1, human 4lg B7-H3 (Homo sapiens, UniProt Q5ZPR3)
T1 sequence (Q5ZPR3 29-534): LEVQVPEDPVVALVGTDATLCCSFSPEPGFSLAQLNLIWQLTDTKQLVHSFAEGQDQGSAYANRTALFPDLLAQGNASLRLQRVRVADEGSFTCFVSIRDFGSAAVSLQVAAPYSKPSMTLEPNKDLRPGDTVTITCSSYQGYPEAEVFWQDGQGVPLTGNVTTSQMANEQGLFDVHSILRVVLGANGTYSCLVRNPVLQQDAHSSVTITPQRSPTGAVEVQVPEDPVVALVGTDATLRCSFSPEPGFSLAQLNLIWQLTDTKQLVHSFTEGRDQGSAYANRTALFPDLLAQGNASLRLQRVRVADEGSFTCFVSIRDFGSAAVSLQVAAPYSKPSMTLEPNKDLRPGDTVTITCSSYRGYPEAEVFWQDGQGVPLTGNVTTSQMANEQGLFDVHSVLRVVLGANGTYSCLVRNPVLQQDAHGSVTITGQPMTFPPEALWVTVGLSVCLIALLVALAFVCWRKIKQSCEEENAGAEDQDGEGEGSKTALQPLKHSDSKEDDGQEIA
Experiment: Affinity determination by surface plasmon resonance (SPR) to 4Ig B7-H3
Conditions: SPR KD—25° C., 4Ig B7-H3; 25° C. flow cell temperature

First: CC(=O)N[C@@H](CCC(C)C)C(=O)N[C@@H](Cc1ccc(O)cc1)C(=O)N[C@H]1CSSC[C@@H](C(=O)N[C@@H](Cc2c[nH]c3ccccc23)C(=O)N[C@@H](Cc2ccccc2)C(=O)N[C@H](C(=O)N[C@H](CCCCNC(=O)CN2CCN(CC(=O)O)CCN(CC(=O)O)CCN(CC(=O)O)CC2)C(N)=O)[C@@H](C)O)NC(=O)[C@H](Cc2ccc(O)cc2)NC(=O)[C@H](C2CCCCC2)NC(=O)[C@H](CC(=O)O)NC(=O)[C@H](Cc2ccc(O)cc2)NC(=O)[C@H](CCCN)NC(=O)CNC(=O)[C@H](C(C)(C)C)NC1=O [compound 138, Ac-hLeu-Y-C-Tbg-G-Orn-Y-D-Chg-Y-C-W-F-Thr-dLys(DOTA)-CONH2] (Ac-[hLeu]YC[Tle]G[Orn]YD[Chg]YCWFT[dK](DOTA)-NH2; disulfide 3-11)
Second: CC(=O)N[C@@H](CCC(C)C)C(=O)N[C@@H](Cc1ccc(O)cc1)C(=O)N[C@H]1CSSC[C@@H](C(=O)N[C@@H](Cc2c[nH]c3ccccc23)C(=O)N[C@@H](Cc2ccccc2)C(=O)N[C@H](C(=O)N[C@H](CCCCNC(=O)CN2CCN(CC(=O)O)CCN(CC(=O)O)CCN(CC(=O)O)CC2)C(N)=O)[C@@H](C)O)NC(=O)[C@H](Cc2ccc(O)cc2)NC(=O)[C@H](C(C)C)NC(=O)[C@H](CC(=O)O)NC(=O)[C@H](Cc2ccc(C(=O)O)cc2)NC(=O)[C@H](CCCCN)NC(=O)CNC(=O)[C@H](C(C)(C)C)NC1=O [compound 139, Ac-hLeu-Y-C-Tbg-G-K-4COOHPhe-D-V-Y-C-W-F-Thr-dLys(DOTA)-CONH2] (Ac-[hLeu]YC[Tle]GK[Phe(4-COOH)]DVYCWFT[dK](DOTA)-NH2; disulfide 3-11)
The Kd of the first is higher: 1 to 10 nM for the first, < 1 nM for the second.

First: CC(=O)N[C@@H](CCC(C)C)C(=O)N[C@@H](Cc1ccc(O)cc1)C(=O)N[C@H]1CSSC[C@@H](C(=O)N[C@@H](Cc2c[nH]c3ccccc23)C(=O)N[C@@H](Cc2ccccc2)C(=O)N[C@H](C(=O)N[C@H](CCCCNC(=O)CN2CCN(CC(=O)O)CCN(CC(=O)O)CCN(CC(=O)O)CC2)C(N)=O)[C@@H](C)O)NC(=O)[C@H](Cc2ccc(O)cc2)NC(=O)[C@H](C(C)C)NC(=O)[C@H](CC(=O)O)NC(=O)[C@H](Cc2ccc(C(=O)O)cc2)NC(=O)[C@H](CCCCN)NC(=O)CN(C)C(=O)[C@H](C(C)(C)C)NC1=O [compound 140, Ac-hLeu-Y-C-Tbg-Sar-K-4COOHPhe-D-V-Y-C-W-F-Thr-dLys(DOTA)-CONH2] (Ac-[hLeu]YC[Tle][Sar]K[Phe(4-COOH)]DVYCWFT[dK](DOTA)-NH2; disulfide 3-11)
Second: CC(=O)N[C@@H](CCC(C)C)C(=O)N[C@@H](Cc1ccc(O)cc1)C(=O)N[C@H]1CSSC[C@@H](C(=O)N[C@@H](Cc2c[nH]c3ccccc23)C(=O)N[C@@H](Cc2ccccc2)C(=O)N[C@H](C(=O)N[C@H](CCCCNC(=O)CN2CCN(CC(=O)O)CCN(CC(=O)O)CCN(CC(=O)O)CC2)C(N)=O)C(C)(C)O)NC(=O)[C@H](Cc2ccc(O)cc2)NC(=O)[C@H](C(C)C)NC(=O)[C@H](CC(=O)O)NC(=O)[C@H](Cc2ccc(O)cc2)NC(=O)[C@H](CCCCN)NC(=O)CNC(=O)[C@H](C(C)C)NC1=O [compound 149, Ac-hLeu-Y-C-V-G-K-Y-D-V-Y-C-W-F-hydroxyVal-dLys(DOTA)-CONH2] (Ac-[hLeu]YCVGKYDVYCWF[Val(3-OH)][dK](DOTA)-NH2; disulfide 3-11)
The Kd of the first is higher: 1 to 10 nM for the first, < 1 nM for the second.

`CC(=O)N[C@@H](CCC(C)C)C(=O)N[C@@H](Cc1ccc(O)cc1)C(=O)N[C@H]1CSSC[C@@H](C(=O)N[C@@H](Cc2c[nH]c3ccccc23)C(=O)N[C@@H](Cc2ccccc2)C(=O)N2CCC[C@H]2C(=O)N[C@@H](CCCCNC(=O)CN2CCN(CC(=O)O)CCN(CC(=O)O)CCN(CC(=O)O)CC2)C(N)=O)NC(=O)[C@H](Cc2ccc(O)cc2)NC(=O)[C@H](C(C)C)NC(=O)[C@H](CC(=O)O)NC(=O)[C@H](Cc2ccc(O)cc2)NC(=O)[C@H](CCCCN)NC(=O)CNC(=O)[C@H](C(C)C)NC1=O` [compound 141, Ac-hLeu-Y-C-V-G-K-Y-D-V-Y-C-W-F-Pro-dLys(DOTA)-CONH2] (Ac-[hLeu]YCVGKYDVYCWFPK(DOTA)-NH2; disulfide 3-11) and `CC(=O)N[C@@H](CCC(C)C)C(=O)N[C@@H](Cc1ccc(O)cc1)C(=O)N[C@H]1CSSC[C@@H](C(=O)N[C@@H](Cc2c[nH]c3ccc(F)cc23)C(=O)N[C@@H](Cc2ccccc2)C(=O)N[C@@](C)(CO)C(=O)N[C@H](CCCCNC(=O)CN2CCN(CC(=O)O)CCN(CC(=O)O)CCN(CC(=O)O)CC2)C(N)=O)NC(=O)[C@H](Cc2ccc(O)cc2)NC(=O)[C@H](C(C)C)NC(=O)[C@H](CC(=O)O)NC(=O)[C@H](Cc2ccc(O)cc2)NC(=O)[C@H](CCCCN)NC(=O)CNC(=O)[C@H](C(C)C)NC1=O` [compound 147, Ac-hLeu-Y-C-V-G-K-Y-D-V-Y-C-5FW-F-aMeSer-dLys(DOTA)-CONH2] (Ac-[hLeu]YCVGKYDVYC[Trp(5-F)]F[αMeS][dK](DOTA)-NH2; disulfide 3-11) fall in the same range of Kd: 1 to 10 nM for the first, 1 to 10 nM for the second.

First: CC(=O)N[C@@H](CCC(C)C)C(=O)N[C@@H](Cc1ccc(O)cc1)C(=O)N[C@H]1CSSC[C@@H](C(=O)N[C@@H](Cc2c[nH]c3ccccc23)C(=O)N[C@@H](Cc2ccccc2)C(=O)N[C@H](C(N)=O)[C@@H](C)O)NC(=O)[C@H](Cc2ccc(O)cc2)NC(=O)[C@H](CCCCNC(=O)CN2CCN(CC(=O)O)CCN(CC(=O)O)CCN(CC(=O)O)CC2)NC(=O)[C@H](CC(=O)O)NC(=O)[C@H](Cc2ccc(O)cc2)NC(=O)[C@H](CCCCN)NC(=O)CNC(=O)[C@H](C(C)C)NC1=O [compound 143, Ac-hLeu-Y-C-V-G-K-Y-D-Lys(DOTA)-Y-C-W-F-Thr-CONH2] (Ac-[hLeu]YCVGKYDK(DOTA)YCWFT-NH2; disulfide 3-11)
Second: CC(=O)N[C@@H](CCC(C)C)C(=O)N[C@@H](Cc1ccc(O)cc1)C(=O)N[C@H]1CSSC[C@@H](C(=O)N[C@@H](Cc2c[nH]c3ccccc23)C(=O)N[C@@H](Cc2ccccc2)C(=O)N[C@H](C(N)=O)[C@@H](C)O)NC(=O)[C@H](Cc2ccc(O)cc2)NC(=O)[C@H](C(C)C)NC(=O)[C@H](CC(=O)O)NC(=O)[C@H](Cc2ccc(O)cc2)NC(=O)[C@H](CCCCNC(=O)CN2CCN(CC(=O)O)CCN(CC(=O)O)CCN(CC(=O)O)CC2)NC(=O)CNC(=O)[C@H](C(C)C)NC1=O [compound 145, Ac-hLeu-Y-C-V-G-Lys(DOTA)-Y-D-V-Y-C-W-F-Thr-CONH2] (Ac-[hLeu]YCVGK(DOTA)YDVYCWFT-NH2; disulfide 3-11)
The Kd of the first is higher: 10 to 100 nM for the first, 1 to 10 nM for the second.

First: CC(=O)N[C@@H](CCC(C)C)C(=O)N[C@@H](Cc1ccc(O)cc1)C(=O)N[C@H]1CSSC[C@@H](C(=O)N[C@@H](Cc2c[nH]c3ccccc23)C(=O)N[C@@H](Cc2ccccc2)C(=O)N[C@H](C(N)=O)[C@@H](C)O)NC(=O)[C@H](Cc2ccc(O)cc2)NC(=O)[C@H](C(C)C)NC(=O)[C@H](CC(=O)O)NC(=O)[C@H](CCCCNC(=O)CN2CCN(CC(=O)O)CCN(CC(=O)O)CCN(CC(=O)O)CC2)NC(=O)[C@H](CCCCN)NC(=O)CNC(=O)[C@H](C(C)C)NC1=O [compound 144, Ac-hLeu-Y-C-V-G-K-Lys(DOTA)-D-V-Y-C-W-F-Thr-CONH2] (Ac-[hLeu]YCVGKK(DOTA)DVYCWFT-NH2; disulfide 3-11)
Second: CC(=O)N[C@@H](CCC(C)C)C(=O)N[C@@H](Cc1ccc(O)cc1)C(=O)N[C@H]1CSSC[C@@H](C(=O)N[C@@H](Cc2cn(C)c3ccccc23)C(=O)N[C@@H](Cc2ccccc2)C(=O)N[C@H](C(=O)N[C@H](CCCCNC(=O)CN2CCN(CC(=O)O)CCN(CC(=O)O)CCN(CC(=O)O)CC2)C(N)=O)[C@@H](C)O)NC(=O)[C@H](Cc2ccc(O)cc2)NC(=O)[C@H](C(C)C)NC(=O)[C@H](CC(=O)O)NC(=O)[C@H](Cc2ccc(O)cc2)NC(=O)[C@H](CCCCN)NC(=O)CNC(=O)[C@H](C(C)C)NC1=O [compound 150, Ac-hLeu-Y-C-V-G-K-Y-D-V-Y-C-Trp(Me)-F-Thr-dLys(DOTA)-CONH2] (Ac-[hLeu]YCVGKYDVYC[Trp(1-Me)]FT[dK](DOTA)-NH2; disulfide 3-11)
The Kd of the first is higher: 10 to 100 nM for the first, < 1 nM for the second.

With `CC(=O)N[C@@H](CCC(C)C)C(=O)N[C@@H](Cc1ccc(O)cc1)C(=O)N[C@H]1CSSC[C@@H](C(=O)N[C@@H](Cc2c[nH]c3ccc(F)cc23)C(=O)N[C@@H](Cc2ccccc2)C(=O)N(C)[C@@H](CO)C(=O)N[C@H](CCCCNC(=O)CN2CCN(CC(=O)O)CCN(CC(=O)O)CCN(CC(=O)O)CC2)C(N)=O)NC(=O)[C@H](Cc2ccc(O)cc2)NC(=O)[C@H](C(C)C)NC(=O)[C@H](CC(=O)O)NC(=O)[C@H](Cc2ccc(O)cc2)NC(=O)[C@H](CCCCN)NC(=O)CNC(=O)[C@H](C(C)C)NC1=O` [compound 148, Ac-hLeu-Y-C-V-G-K-Y-D-V-Y-C-5FW-F-NMeSer-dLys(DOTA)-CONH2] (Ac-[hLeu]YCVGKYDVYC[Trp(5-F)]F[NMeS][dK](DOTA)-NH2; disulfide 3-11) the Kd was < 1 nM.

Same assay, conditions: SPR KD—37° C., 4Ig B7-H3; 37° C. flow cell temperature

In the case of `CC(=O)N[C@@H](CCC(C)C)C(=O)N[C@@H](Cc1ccc(O)cc1)C(=O)N[C@H]1CSSC[C@@H](C(=O)N[C@@H](Cc2c[nH]c3ccccc23)C(=O)N[C@@H](Cc2ccccc2)C(=O)N[C@H](C(=O)N[C@H](C)C(N)=O)[C@@H](C)O)NC(=O)[C@H](Cc2ccc(O)cc2)NC(=O)[C@H](C(C)C)NC(=O)[C@H](CC(=O)O)NC(=O)[C@H](Cc2ccc(OCCNC(=O)CN3CCN(CC(=O)O)CCN(CC(=O)O)CCN(CC(=O)O)CC3)cc2)NC(=O)[C@H](CCCCN)NC(=O)CNC(=O)[C@H](C(C)C)NC1=O` [compound 136, Ac-hLeu-Y-C-V-G-K-AEF(DOTA)-D-V-Y-C-W-F-Thr-dAla-CONH2] (Ac-[hLeu]YCVGK[AEF](DOTA)DVYCWFT[dA]-NH2; disulfide 3-11), the Kd is reported as < 1 nM.
